# Reference: patent US20080242663A1, “NOVEL PYRIMIDINE DERIVATIVES 698” (ASTRAZENECA AB, priority 2007, published 2008)
# Key:
# recombinant EphB4 = target: T1, recombinant EphB4 (Homo sapiens, UniProt P54760); test: In vitro EphB4 enzyme assay (Alphascreen); format: biochemical
# T1 construct: amino acids 563-987; Swiss-Prot Acc; No. P54760; purchased ProQinase GmbH 0178-0000-3
# T1 sequence (P54760 563-987): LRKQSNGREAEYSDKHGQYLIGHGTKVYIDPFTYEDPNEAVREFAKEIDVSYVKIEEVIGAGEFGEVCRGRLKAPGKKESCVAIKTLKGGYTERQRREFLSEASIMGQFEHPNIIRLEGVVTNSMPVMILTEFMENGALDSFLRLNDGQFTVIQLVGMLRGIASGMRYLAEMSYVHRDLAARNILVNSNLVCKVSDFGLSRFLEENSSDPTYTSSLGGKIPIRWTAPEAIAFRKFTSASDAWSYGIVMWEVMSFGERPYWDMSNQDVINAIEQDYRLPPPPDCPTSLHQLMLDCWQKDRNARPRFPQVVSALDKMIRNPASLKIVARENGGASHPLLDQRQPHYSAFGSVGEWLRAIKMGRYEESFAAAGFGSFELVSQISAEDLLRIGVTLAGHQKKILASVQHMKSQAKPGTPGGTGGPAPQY
# How it was run: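 Recombinant EphB4 phosphorylated biotin-poly-GAT with Mg-ATP for 1 hr at room temperature; EDTA stop, then Alphascreen donor/acceptor (anti-phosphotyrosine) beads for 20 hrs in the dark. After minimum subtraction, signal plotted against compound concentration to derive IC50.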
# human EphB4 = target: T2, human EphB4 (Homo sapiens, UniProt P54760); test: In vitro EphB4 cell assay (EphB4 phosphorylation in EphB4-CHO cells, sandwich ELISA); format: cell-based; details: Assay B
# T2 construct: to generate full-length EphB4 containing a Myc-His tag at the C-terminus; expressed in transfected cells; EphB4-CHO)
# T2 sequence (P54760 16-987): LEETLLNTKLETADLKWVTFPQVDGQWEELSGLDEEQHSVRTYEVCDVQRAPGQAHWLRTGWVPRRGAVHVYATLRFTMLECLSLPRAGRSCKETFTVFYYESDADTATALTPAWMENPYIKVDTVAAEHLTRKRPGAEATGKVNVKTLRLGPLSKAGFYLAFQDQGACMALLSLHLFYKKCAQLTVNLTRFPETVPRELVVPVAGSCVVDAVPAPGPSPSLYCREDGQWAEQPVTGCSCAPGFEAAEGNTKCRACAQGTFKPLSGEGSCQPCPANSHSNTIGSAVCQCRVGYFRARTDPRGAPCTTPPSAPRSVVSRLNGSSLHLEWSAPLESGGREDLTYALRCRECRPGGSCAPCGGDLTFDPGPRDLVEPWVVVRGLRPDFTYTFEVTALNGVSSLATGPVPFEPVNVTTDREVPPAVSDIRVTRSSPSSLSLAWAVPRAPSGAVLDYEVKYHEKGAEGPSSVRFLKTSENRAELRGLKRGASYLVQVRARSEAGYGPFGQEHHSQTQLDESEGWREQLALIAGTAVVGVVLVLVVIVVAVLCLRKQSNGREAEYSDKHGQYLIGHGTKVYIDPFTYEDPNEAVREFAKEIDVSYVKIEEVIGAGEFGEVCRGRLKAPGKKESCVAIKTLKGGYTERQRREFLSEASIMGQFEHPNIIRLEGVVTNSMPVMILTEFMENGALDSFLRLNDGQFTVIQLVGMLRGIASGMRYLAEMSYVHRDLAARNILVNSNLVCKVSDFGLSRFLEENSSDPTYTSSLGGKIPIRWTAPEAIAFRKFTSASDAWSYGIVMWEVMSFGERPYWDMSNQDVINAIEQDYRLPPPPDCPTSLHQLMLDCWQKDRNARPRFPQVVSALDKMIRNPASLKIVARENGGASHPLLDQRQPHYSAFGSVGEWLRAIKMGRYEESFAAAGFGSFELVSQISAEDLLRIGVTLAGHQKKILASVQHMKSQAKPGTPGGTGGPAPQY
# Description: The assay identifies inhibitors of cellular EphB4 by measuring a decrease in phosphorylation of EphB4 following treatment of cells with compound. The endpoint assay used a sandwich ELISA to detect EphB4 phosphorylation status. Briefly, Myc-tagged EphB4 from treated cell lysate was captured on the ELISA plate via an anti-c-Myc antibody. The phosphorylation status of captured EphB4 was then measured using a generic phosphotyrosine antibody conjugated to HRP via a colourimetric output catalysed by HRP, with level of EphB4 phosphorylation directly proportional to the colour intensity. Absorbance was measured spectrophotometrically at 450 nm.
# Full length human EphB4 (Swiss-Prot Acc. No. P54760) was cloned using standard techniques from cDNA prepared from HUVEC using RT-PCR. The cDNA fragment was then sub-cloned into a pcDNA3.1 expression vector containing a Myc-His epitope tag to generate full-length EphB4 containing a Myc-His tag at the C-terminus (Invitrogen Ltd. Paisley, UK). […] CHO-K1 cells were engineered to stably express the EphB4-Myc-His construct using standard stable transfection techniques, to generate cells hereafter termed EphB4-CHO.
# On day 2, the cells were incubated overnight in 90 μl/well of media containing 0.1% Hyclone stripped-serum (Fisher Scientific UK, Catalogue No. SH30068.02). […] A 10 μl aliquot of each compound dilution was transferred to the cell plates in duplicate wells, and the cells incubated for 1 hr at 37° C.
# Following compound treatment, cells were stimulated with clustered ephrin-B2 at a final concentration of 1 μg/ml for 20 minutes at 37° C. to induce EphB4 phosphorylation. Following stimulation, the medium was removed and the cells lysed in 100 μl/well of lysis buffer (25 mM Tris HCl, 3 mM EDTA, 3 mM EGTA, 50 mM NaF, 2 mM orthovanadate, 0.27M Sucrose, 10 mM β-glycerophosphate, 5 mM sodium pyrophosphate, 2% Triton X-100, pH 7.4).
# Plates were washed twice with PBS/0.05% Tween-20 and incubated with 100 μl/well cell lysate overnight at 4° C. […] ELISA plates were washed four times with PBS/0.05% Tween-20 and developed with 100 μl/well TMB substrate (Sigma-Aldrich Company Ltd, Catalogue No. T0440). The reaction was stopped after 15 minutes with the addition of 25 μl/well 2M sulphuric acid. The absorbances were determined at 450 nm using the Tecan SpectraFluor Plus. The minimum value was subtracted from all values, and the signal plotted against compound concentration to generate IC50 data.
# [1] = test system: Human Colorectal cancer cells (HT29); test: In vivo tumour explant model; set-up: species or system nude male mice (nu/nu:Alpk); details: HT29 tumours in nude mice, 100 mg/kg b.i.d. orally, 16 consecutive days
# Description: Human Colorectal cancer cells (HT29 5×10^6 (ATCC HTB-38)) were implanted subcutaneously on to the left flank of nude male mice (nu/nu:Alpk). Actively growing tumours approx 0.2-0.3 cm^3 were selected and randomised. […] Tumours were measured twice weekly and volumes (cm^3) calculated (π/6×(length×width×width)/1000). On the final day of the dosing the tumours were measured, percent growth inhibition was then calculated compared to the control ((([…]-1))*100), where GMDV is the geometric delta volume of either treated (T) or control (C), and a T-Test was performed to establish significance.
Compound,IC50 (recombinant EphB4) [nM],IC50 (human EphB4) [nM],tumour volume [1]
"CN(c1ccnc(Nc2cc(N3CCCOCC3)cc(N3CCOCC3)c2)n1)c1ccc(F)c(Cl)c1F [Example 2.10, N′-(3-chloro-2,4-difluoro-phenyl)-N′-methyl-N-[3-morpholin-4-yl-5-(1,4-oxazepan-4-yl)phenyl]pyrimidine-2,4-diamine]",1270,11,
"CC(C)OCc1cc(Nc2nccc(N(C)c3ccc(F)c(Cl)c3F)n2)cc(N2CCOCC2)c1 [Example 2.15, N′-(3-chloro-2,4-difluoro-phenyl)-N′-methyl-N-[3-morpholin-4-yl-5-(propan-2-yloxymethyl)phenyl] pyrimidine-2,4-diamine]",1110,17,
"CN(c1ccnc(Nc2cc(CN3CCCC3)cc(N3CCOCC3)c2)n1)c1ccc(F)c(Cl)c1F [Example 2.17, N′-(3-chloro-2,4-difluoro-phenyl)-N′-methyl-N-[3-morpholin-4-yl-5-(pyrrolidin-1-ylmethyl)phenyl]py-rimidine-2,4-diamine]",28.9,21,
"CN1CCN(c2cccc(Nc3nccc(N(C)c4ccc(F)c(Cl)c4F)n3)c2)CC1 [Example 4, N′-(3-chloro-2,4-difluoro-phenyl)-N′-methyl-N-[3-(4-methylpiperazin-1-yl)phenyl]pyrimidine-2,4-diamine]",63.8,1710,
"Cc1ccc(CO)cc1N(C)c1ccnc(Nc2cc(N3CCOCC3)cc(N3CCOCC3)c2)n1 [[3-[[2-[(3,5-dimorpholin-4-ylphenyl)amino]pyrimidin-4-yl]-methyl-amino]-4-methyl-phenyl]methanol]",,,reducing tumour volume
